Laboratory results reported in ChEMBL document CHEMBL1151993, “Oxylipins from Dracontium loretense” (J Nat Prod, 2009).
The source made the active and inactive calls. No cut-off for these calls is given here.

Tests used:
[1] = test system: PBMC; assay: Cytotoxicity in human PBMC cells at 100 uM after 48 hrs; type: cell-based
[2] = test system: PBMC; assay: Immunostimulatory activity in human PBMC assessed as reduction in cell proliferation at 100 uM after 48 hrs by [3H]thymidine incorporation assay relative to control; type: functional, cell-based
[3] = test system: PBMC; assay: Immunostimulatory activity in human PBMC assessed as cell activation at 10 uM after 48 hrs by [3H]thymidine incorporation assay relative to control; type: functional, cell-based

Row | Structure (SMILES) | Activity [1] | Activity [2] | Activity [3]
1 | CCCCCCCC[C@@H](O)[C@H](O)/C=C/C(O)CCCCC(=O)O (relative stereo) | Toxic | inactive | –
2 | CC/C=C\C/C=C\[C@@H](O)[C@H](O)[C@@H](O)CCCCCCCC(=O)O (relative stereo) | Toxic | inactive | –
3 | CCCCCCCC[C@H](O)[C@@H](O)[C@H](O)/C=C\CCCCC(=O)O (relative stereo) | Toxic | inactive | –
4 | CCCCCCCC[C@H](O)[C@H](O)/C=C/C(O)CCCCC(=O)O (relative stereo) | Toxic | inactive | Active
